The AC50 is the concentration at which the activity in the assay is half-maximal. A word on the IC50: it is the concentration at which inhibition is half-maximal. As a reminder, the EC50 is the concentration at which the effect is half-maximal. One may read the CC50 as the concentration that lowers cell viability or growth by half.

The structures appear in SMILES notation. Activity calls are given as the source filed them.

The target in one series is Paired box protein Pax-8 (Homo sapiens, UniProt Q06710). The experiment in a line: inhibitors of PAX8-driven TPO luciferase reporter, dose response, RMG-I cells, cherry-pick (AID 687027).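 Further: luciferase reporter driven by Pax8 target thyroperoxidase promoter measured by SteadyGlo luminescence.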 The series is classed as functional, cell-based.
Paired box protein Pax-8, sequence (Q06710 whole entry): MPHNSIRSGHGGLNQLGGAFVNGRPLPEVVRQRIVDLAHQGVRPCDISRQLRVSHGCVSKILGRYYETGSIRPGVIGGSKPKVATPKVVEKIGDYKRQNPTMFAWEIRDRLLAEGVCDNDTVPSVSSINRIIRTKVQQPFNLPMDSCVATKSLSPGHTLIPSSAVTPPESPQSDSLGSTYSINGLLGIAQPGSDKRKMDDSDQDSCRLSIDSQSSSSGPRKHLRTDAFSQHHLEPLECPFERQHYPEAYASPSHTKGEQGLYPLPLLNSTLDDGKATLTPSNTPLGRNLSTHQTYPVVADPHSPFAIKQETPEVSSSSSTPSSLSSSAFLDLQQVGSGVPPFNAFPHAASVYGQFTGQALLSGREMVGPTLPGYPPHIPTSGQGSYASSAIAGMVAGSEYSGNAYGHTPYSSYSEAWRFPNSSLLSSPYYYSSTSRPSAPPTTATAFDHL
A short description of series [1]: cytotoxicity in OVCAR8 ovarian cancer cells, dose response, PAX8 project, cell-based, plate reader, dry powder samples (AID 743197). The series is classed as functional. As to conditions: OVCAR-8.
Series [2] concerns the target T1, High affinity choline transporter 1 (Homo sapiens, UniProt Q9GZV3).
T1 sequence (Q9GZV3 whole entry): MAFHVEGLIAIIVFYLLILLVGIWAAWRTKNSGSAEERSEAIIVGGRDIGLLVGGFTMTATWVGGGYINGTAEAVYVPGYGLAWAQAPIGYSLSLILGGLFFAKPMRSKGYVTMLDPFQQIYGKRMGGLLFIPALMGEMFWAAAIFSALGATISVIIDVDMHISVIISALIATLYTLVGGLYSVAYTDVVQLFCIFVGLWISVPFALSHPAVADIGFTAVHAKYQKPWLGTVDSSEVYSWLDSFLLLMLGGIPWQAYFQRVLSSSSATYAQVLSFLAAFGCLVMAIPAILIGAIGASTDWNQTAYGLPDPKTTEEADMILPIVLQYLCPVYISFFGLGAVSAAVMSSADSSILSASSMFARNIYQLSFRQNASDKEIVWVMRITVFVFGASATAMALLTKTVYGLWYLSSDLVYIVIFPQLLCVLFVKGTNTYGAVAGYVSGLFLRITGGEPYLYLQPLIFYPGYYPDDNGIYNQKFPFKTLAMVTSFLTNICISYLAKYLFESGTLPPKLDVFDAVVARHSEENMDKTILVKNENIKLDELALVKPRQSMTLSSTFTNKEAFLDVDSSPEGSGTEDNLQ
In words: CHT inhibitors, dose response, cell-based, 5-point CRC, membrane potential dye (AID 504840). The series is classed as functional.

Series [3] has as its target Luciferin 4-monooxygenase (Photinus pyralis, UniProt P08659). In words: firefly luciferase enzyme inhibitors, dose response, biochemical, luminescence (AID 1891).
Series [4] is described as follows: Luminescence Cell-Based Dose Confirmation HTS to Identify Inhibitors of Platelet Dense Granule Release. [Related pubchem assays: 1663 (Primary HTS), 1678 (Summary of Project)]. The series is classed as functional.
The target of series [5] is T2, Calpain-2 catalytic subunit (Sus scrofa, UniProt P43367).
T2 sequence (P43367 whole entry): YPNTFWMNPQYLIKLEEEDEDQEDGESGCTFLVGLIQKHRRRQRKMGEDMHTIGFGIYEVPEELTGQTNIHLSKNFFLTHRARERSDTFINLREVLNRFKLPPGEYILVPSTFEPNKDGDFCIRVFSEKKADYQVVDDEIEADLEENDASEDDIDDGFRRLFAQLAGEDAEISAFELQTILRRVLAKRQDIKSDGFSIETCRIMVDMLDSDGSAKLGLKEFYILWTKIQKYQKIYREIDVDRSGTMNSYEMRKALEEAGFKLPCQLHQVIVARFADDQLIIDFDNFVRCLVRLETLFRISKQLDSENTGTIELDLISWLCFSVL
In words: pig calpain II inhibitor potency, dose response, biochemical, fluorogenic peptide substrate (AID 1420). The series is classed as functional.

Series [6] can be described thus: P. falciparum Dd2 growth inhibitors, dose response, SYBR Green, cherry-picked samples (AID 1159567). The series is classed as functional, cell-based.
Series [7] in a line: growth suppression of beta-catenin-knockout colon cells, dose response, cell-based, HCT116, human colon tumor (AID 1045).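 Further: HCT116 colon tumor cells with beta catenin knocked out; cells exposed to compound for 60 hours.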 The series is classed as functional.
Series [8] can be described thus: growth suppression of PTEN-null colon cells, dose response, cell-based, HCT116 PTEN knockout (AID 1047).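 Further: HCT116 colon tumor cells with PTEN knocked out; cells exposed to compound for 60 hours before readout; potency for loss of cell viability measured by luminescence.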 The series is classed as functional.
Series [9] has as its target Heat shock protein HSP 90-alpha (Homo sapiens, UniProt P07900). The series is classed as functional, organism-based.
The target in series [10] is T3, DNA repair protein RAD52 homolog (Homo sapiens, UniProt P43351).
T3 sequence (P43351 whole entry): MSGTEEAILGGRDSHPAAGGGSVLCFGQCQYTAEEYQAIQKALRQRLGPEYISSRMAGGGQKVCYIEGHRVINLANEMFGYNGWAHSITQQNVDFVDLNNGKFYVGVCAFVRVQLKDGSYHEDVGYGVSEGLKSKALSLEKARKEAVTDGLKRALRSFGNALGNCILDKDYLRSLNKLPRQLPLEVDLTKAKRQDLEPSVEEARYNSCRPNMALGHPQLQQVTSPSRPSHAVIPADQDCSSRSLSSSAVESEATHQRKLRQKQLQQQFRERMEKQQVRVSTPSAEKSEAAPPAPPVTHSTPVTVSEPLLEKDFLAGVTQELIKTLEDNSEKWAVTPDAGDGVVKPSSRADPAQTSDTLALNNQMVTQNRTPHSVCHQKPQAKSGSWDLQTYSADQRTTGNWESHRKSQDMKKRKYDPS
The series is classed as functional, biochemical.

Series [11] addresses Glyceraldehyde-3-phosphate dehydrogenase (Homo sapiens, UniProt P04406).
A further series has as its target T4, Protein skinhead-1 (Caenorhabditis elegans, UniProt P34707).
T4 sequence (P34707 whole entry): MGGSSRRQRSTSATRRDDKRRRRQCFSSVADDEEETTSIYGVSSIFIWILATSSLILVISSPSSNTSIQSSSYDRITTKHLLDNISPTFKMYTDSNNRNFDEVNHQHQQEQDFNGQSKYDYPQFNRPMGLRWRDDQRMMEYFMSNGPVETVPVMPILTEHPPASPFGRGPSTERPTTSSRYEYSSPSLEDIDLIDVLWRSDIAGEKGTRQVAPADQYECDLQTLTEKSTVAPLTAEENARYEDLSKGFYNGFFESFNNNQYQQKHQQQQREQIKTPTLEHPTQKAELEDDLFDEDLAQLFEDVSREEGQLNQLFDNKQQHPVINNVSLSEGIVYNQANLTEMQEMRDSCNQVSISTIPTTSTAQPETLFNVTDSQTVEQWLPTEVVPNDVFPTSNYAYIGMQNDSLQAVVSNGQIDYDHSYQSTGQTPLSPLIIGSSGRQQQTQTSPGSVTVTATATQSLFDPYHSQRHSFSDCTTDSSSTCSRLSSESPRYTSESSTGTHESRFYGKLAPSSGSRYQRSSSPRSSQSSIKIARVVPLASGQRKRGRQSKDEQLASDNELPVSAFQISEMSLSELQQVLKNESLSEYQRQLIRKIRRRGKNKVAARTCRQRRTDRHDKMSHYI
The series is classed as functional.

The nature of another series: cells. The series is classed as functional.
Series [12] is described as follows: THP-1 cell cytotoxicity, dose response, cytotoxicity control for non-replicating M. tuberculosis project (AID 489025). The series is classed as functional.
The next series addresses Cytochrome P450 3A4 (Homo sapiens, UniProt P08684).
The target of a further series is Cytochrome P450 2C19 (Homo sapiens, UniProt P33261). In words: Cytochrome panel assay with activity outcomes. Panel member name: p450-cyp2c19 Compounds with AC50 equal or less than 10 uM are considered active. The series is classed as functional.
Cytochrome P450 2C19, sequence (P33261 whole entry): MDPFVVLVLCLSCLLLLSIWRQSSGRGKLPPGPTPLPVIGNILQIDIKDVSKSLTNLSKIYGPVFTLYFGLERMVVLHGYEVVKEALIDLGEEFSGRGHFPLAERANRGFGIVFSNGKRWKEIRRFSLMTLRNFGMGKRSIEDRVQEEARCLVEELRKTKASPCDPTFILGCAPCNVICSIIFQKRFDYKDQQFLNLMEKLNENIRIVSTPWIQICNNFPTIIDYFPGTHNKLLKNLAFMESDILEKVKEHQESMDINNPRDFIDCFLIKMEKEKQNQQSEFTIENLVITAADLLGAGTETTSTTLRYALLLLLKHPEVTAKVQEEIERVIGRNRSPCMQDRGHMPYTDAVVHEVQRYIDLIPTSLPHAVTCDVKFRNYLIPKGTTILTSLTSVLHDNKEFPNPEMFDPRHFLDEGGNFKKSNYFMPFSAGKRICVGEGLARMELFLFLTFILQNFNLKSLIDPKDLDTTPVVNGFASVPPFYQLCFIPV

Luciferin 4-monooxygenase, sequence (P08659 whole entry): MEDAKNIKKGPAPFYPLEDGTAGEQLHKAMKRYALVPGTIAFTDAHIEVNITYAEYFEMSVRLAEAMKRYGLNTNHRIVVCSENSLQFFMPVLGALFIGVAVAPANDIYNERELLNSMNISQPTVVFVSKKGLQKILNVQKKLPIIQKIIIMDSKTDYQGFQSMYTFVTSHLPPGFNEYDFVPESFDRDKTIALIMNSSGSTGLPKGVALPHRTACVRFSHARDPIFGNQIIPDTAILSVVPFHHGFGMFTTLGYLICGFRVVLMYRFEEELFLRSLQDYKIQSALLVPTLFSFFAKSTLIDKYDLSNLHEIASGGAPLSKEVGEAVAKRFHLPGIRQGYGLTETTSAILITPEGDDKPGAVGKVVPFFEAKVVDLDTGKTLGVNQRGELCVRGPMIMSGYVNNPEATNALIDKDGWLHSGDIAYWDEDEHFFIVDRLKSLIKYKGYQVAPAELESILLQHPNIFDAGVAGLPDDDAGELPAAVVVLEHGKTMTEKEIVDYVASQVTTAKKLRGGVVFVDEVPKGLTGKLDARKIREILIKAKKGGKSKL
Cytochrome P450 3A4, sequence (P08684 whole entry): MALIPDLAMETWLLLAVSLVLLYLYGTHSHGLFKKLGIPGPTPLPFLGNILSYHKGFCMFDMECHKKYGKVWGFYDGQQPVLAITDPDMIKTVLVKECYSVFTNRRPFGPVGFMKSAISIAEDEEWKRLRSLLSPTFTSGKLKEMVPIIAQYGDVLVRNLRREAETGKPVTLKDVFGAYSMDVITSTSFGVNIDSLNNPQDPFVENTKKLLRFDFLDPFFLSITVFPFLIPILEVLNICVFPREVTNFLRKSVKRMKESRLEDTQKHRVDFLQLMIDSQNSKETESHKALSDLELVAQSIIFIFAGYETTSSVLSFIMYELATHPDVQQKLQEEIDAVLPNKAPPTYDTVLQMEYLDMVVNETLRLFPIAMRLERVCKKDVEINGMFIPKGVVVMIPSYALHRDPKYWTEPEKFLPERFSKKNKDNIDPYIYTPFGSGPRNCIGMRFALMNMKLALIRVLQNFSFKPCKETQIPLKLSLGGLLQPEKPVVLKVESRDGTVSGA
Glyceraldehyde-3-phosphate dehydrogenase, sequence (P04406 whole entry): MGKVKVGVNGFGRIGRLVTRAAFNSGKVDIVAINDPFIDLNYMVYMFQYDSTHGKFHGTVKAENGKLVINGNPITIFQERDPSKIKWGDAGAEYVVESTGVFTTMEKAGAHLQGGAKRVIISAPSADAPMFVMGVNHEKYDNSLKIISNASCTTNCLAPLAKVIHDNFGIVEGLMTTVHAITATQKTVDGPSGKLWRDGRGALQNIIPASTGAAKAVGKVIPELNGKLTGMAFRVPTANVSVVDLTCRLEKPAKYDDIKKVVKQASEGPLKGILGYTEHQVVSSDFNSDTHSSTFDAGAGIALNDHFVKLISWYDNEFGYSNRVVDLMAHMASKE

`COc1cccc(S(=O)(=O)N(C)C[C@H]2OCc3ccccc3-c3c(n(C)c4ccccc34)C(=O)N([C@H](C)CO)C[C@H]2C)c1`: the AC50 on Paired box protein Pax-8 was 9.53 µM (active); in [1], > 70 µM (inactive). Consider `COc1ccc(-n2c(C)cc(C(=O)CSc3nnc(-c4ccoc4C)n3C)c2C)cc1`, for which the IC50 in series [2] was 13.8 µM (active). For `Fc1ccccc1Nc1nc2ccccc2o1`, the EC50 in series [3] was 0.83 µM (active); in [4], 4.57 µM (active).

As for `CCC(=O)N1CCc2cc(S(=O)(=O)N3CCc4ccccc4C3)ccc21`, the IC50 in series [5] was < 0.4 µM (not active).

`COc1cccc(CNC(=O)c2cc3c(c(-c4cccc(-c5ccncc5)c4)n2)[C@@H](CCO)N([S@+]([O-])C(C)(C)C)C3)c1`: in [6], the AC50 was 4.32 µM (active). Still for that read-out and setting: then `Cc1ccccc1S(=O)(=O)N1[C@H](CO)[C@@H](c2ccc(C#CC3CC3)cc2)[C@@H]1C#N`, with 4.33 µM (active). Consider `O=C(CN1CCCCC1)N1CCCc2c1c(=O)oc1ccc(OCc3ccccc3)cc21`, for which the EC50 in series [7] is 48.4 µM (active); in [8], 39.9 µM (active). `O=C(c1ccc(-c2ccccc2)cc1)C1CCCN(C(=O)c2cncs2)C1` (stereo unspecified): the AC50 in [9] was 4.29 µM (active). Regarding `COc1ccc2nc(Nc3nc4ccc(NC(C)=O)cc4s3)sc2c1`, the EC50 in [7] was 14 µM (active); in series [8] it was 16.9 µM (active).

With `C[C@H](CO)N1C[C@H](C)[C@H](CN(C)Cc2ccc(C(F)(F)F)cc2)OCCCC[C@H](C)Oc2ccc(NC(=O)c3ccccc3)cc2C1=O`, the AC50 is 9.33 µM (active) at Paired box protein Pax-8 and 43.7 µM (active) in series [1]. With `Cc1ccc2c(c1)c1c3n2CCN(CC(O)CNC(C)C)C3CCC1` (stereo unspecified), the AC50 in series [10] is 15.8 µM (active). With `Cc1cc(C(=O)N/N=C/c2ccc(OCc3ccccc3)cc2)c(C)o1`, the IC50 in series [5] was < 0.4 µM (not active). With `CCOc1cc2c(cc1C(C)(C)C)NC(=O)CS2`, the EC50 in [3] and in series [4] was > 112 µM (not active) each time. On to `COc1cccc(/C=N/Nc2ccc(S(=O)(=O)O)cc2)c1O`, for which the concentration giving a half-maximal response (EC50) was 3.91 µM (active) in series [3] and 3.13 µM (active) in series [4].

As for `COc1ccccc1CNC(=O)C[C@H]1C[C@H]2c3cc(NC(=O)Cc4ccncc4)ccc3O[C@H]2[C@@H](CO)O1`, the AC50 in series [6] is 4.52 µM (active). On to `COc1ccc2nc(NCCN=C(S)NCCCN3CCOCC3)c(C#N)cc2c1`, for which the AC50 in [10] is 9.87 µM (active). On to `O=C(O)C1Nc2ccccc2S(=O)(=O)N1` (stereo unspecified), for which the IC50 in series [11] is > 100 µM (not active).

On to `CCOC(=O)C1CCN(Cc2c(O)oc3ccccc3c2=O)CC1`, for which, in series [2], the IC50 was 6.91 µM (active). With `Cc1noc(C)c1CSc1nnc2scc(-c3ccc(Cl)cc3)n12`, the EC50 in series [3] and in series [4] was > 112 µM (not active) in each case. Consider `Cc1ccc(S(=O)(=O)N(C)C[C@@H]2OCCCC[C@H](C)Oc3ccc(NS(=O)(=O)c4cccs4)cc3C(=O)N([C@H](C)CO)C[C@H]2C)cc1`, for which the AC50 was 6.6 µM (active) on Paired box protein Pax-8 and > 70 µM (inactive) in series [1].

With `O=C(/C=C/Nc1ccc(Oc2ccccc2)cc1)c1ccco1`, the IC50 at Protein skinhead-1 was > 100 µM (inactive). In addition, the EC50 in series [3] was 0.617 µM (active); in series [4], 1.64 µM (active). Turning to `CCN(CC)CCN1CCn2c3c(c4cc(C)ccc42)CCCC31` (stereo unspecified), the AC50 in series [10] is 17.6 µM (active).

Turning to `CN(C)CC/C=C1/c2ccc(F)cc2Sc2ccc(Cl)cc21`, the AC50 in series [10] is 12.8 µM (active). Also, the IC50 in “cells” is 18.6 µM (active). Besides, the CC50 in series [12] is 18.9 µM (active). In the case of `COc1ccc(-n2cc(-c3ccccc3)c3c(N4CCN(CCO)CC4)ncnc32)cc1`, the EC50 in series [7] is 30.3 µM (active); in series [8], 32.8 µM (active). In the case of `COc1ccc2oc(/C=C/N(C)C)c(C(=O)c3ccc(Cl)cc3)c2c1`, the AC50 in series [9] is 3.8 µM (active). Take `O=C(Nc1cccc(-c2nnc(-c3ccco3)o2)c1)c1ccccc1`: in series [5], the IC50 is listed as 2.37 µM (not active). On to `CCn1ccc(C(=O)Nc2c(C)nn(Cc3c(F)c(F)c(F)c(F)c3F)c2C)n1`, for which the EC50 in series [3] and in [4] was > 112 µM (not active) each time. With `CCCCn1c(SCn2nnc3ccccc3c2=O)nc2cc(S(N)(=O)=O)ccc21`, the IC50 in series [2] was 15.8 µM (active). Regarding `CC(=O)Nc1cccc(-c2cc(N3CCN(CCO)CC3)n3nccc3n2)c1`, the half-maximal activity concentration (AC50) in series [10] was 27.6 µM (active). `CC(C)C[C@H](NC(=O)[C@@H]1O[C@H]1C(=O)O)C(=O)NCCCCN=C(N)N`: in series [5], the 50% inhibitory concentration (IC50) is > 50 µM (not active). Further, the AC50 at Cytochrome P450 3A4 is 0.158 µM (inconclusive); at Cytochrome P450 2C19 it was “inconclusive”. Turning to `CN(C)CCCNc1nc2cc(-c3cnn(C)c3)sc2c(=O)n1C`, the AC50 in series [10] is 10.2 µM (active).

As for `COc1ccc(N(C(=O)Cn2nnc(-c3ccccc3F)n2)C(C(=O)NCC2CCCO2)c2ccc(Cl)cc2)cc1` (stereo unspecified), the IC50 in [5] is > 50 µM (not active). On the same count and under the same terms, then `Cc1ccc(SCCN=C(S)Nc2cc(C)cc(C)c2)cc1`, with 6.82 µM (not active).

Take `COc1ccc(S(=O)(=O)N(C)C[C@H]2OCCCC[C@@H](C)Oc3ccc(NS(=O)(=O)c4c(C)noc4C)cc3C(=O)N([C@H](C)CO)C[C@H]2C)cc1`: the results for the AC50 (at Paired box protein Pax-8; in series [1]) were 7.76 µM (active) and 66 µM (active), respectively. `COc1ccc(CO/N=C/c2c(C)nc(O)nc2O)cc1`: the half-maximal effective concentration (EC50) in series [3] is > 112 µM (not active); in series [4], 13.8 µM (active). Take `C[C@@H]1CN([C@H](C)CO)C(=O)c2c(c3ccccc3n2C)-c2ccccc2CO[C@@H]1CN(C)Cc1cccc(F)c1`: the AC50 in [6] was 3.45 µM (active). The same measure, in the same setting: then `CC(C)(C)[S@+]([O-])N1Cc2cc(C(=O)NCCN3CCCCC3)nc(-c3cccc(-c4ccc(C#N)cc4)c3)c2[C@@H]1CCO`, with 9.22 µM (active).

Source of the values: ChEMBL document CHEMBL1201862, “PubChem BioAssay data set” (2004).
